Data taken from US11035850B2, “Quantitative determination of nucleoside analogue drugs in genomic DNA or RNA” (THE JOHNS HOPKINS UNIVERSITY, priority 2016, dated 2021).

Tests used:
[1] = Stability of DAC, 2dC, and 5mC (LC-MS/MS); type: physicochemical; conditions: for Digest Buffers Stability (−70° C.) (35 Days) (%): digest buffer; for Stock Stability (27 Days) (%): Stock solution in water 1 mg/mL, −20° C. printed for DAC only
Method: (§1) Standards and quality control (QCs) samples were prepared by adding known concentrations of analytes into blank digest matrix (all solvents used during the DNA digest except for the enzymes). All digested DNA samples, standards and QCs were prepared for analysis by adding 20 μL internal standard (5AC-^15N4, 2dC-^13C^15N2 and 5mC-d3 in water) to 100 μL of sample and vortex-mix briefly. The internal standard in the range of 5 μL, 10 μL, or 15 μL to 20 μL, 25 μL, 30 μL, or 35 μL could be added to a sample. The sample could be in the range of 85 μL, 90 μL, or 95 μL to 100 μL, 105 μL, 110 μL, or 110 μL. The samples were injected onto a LC-MS system containing a Waters Acquity UPLC (Milford, Mass.) interfaced with an AB Sciex 5500 triple quadruple mass spectrometer (Foster City, Calif.). Chromatographic separation was achieved using Thermo Hypercarb porous graphite analytical column (100×2.1 mm, 5 μm, Waltham, Mass.) running isocratic with 10 mM ammonium acetate-acetonitrile-formic acid (70:30:0.1, v/v) with a flow rate of […]. The mass spectrometer was run in positive electrospray ionization mode with follow MRM transitions: DAC: 228.9→113.0, 2dC: 228.0→112.0, 5mC: 242.0→126.0, 5AC-^15N4 (internal standard): 249.0→117.0, 2dC-^13C^15N2 (internal standard) 230.8→115.0 and 5mC-d3 (internal standard) 245.8→129.0. The calibration range was 2-400 ng/mL for DAC, 5-1,000 ng/mL for 5mC, and 50-10,000 ng/mL for 2dC. All analytes were quantified using quadratic regression with 1/x^2 weighing.
A LC-MS/MS method was developed and validated to determine DAC, 2dC, and 5mC concentrations in DNA digest matrix (FIGS. 1-3). No major interferences were observed from blank matrix (FIGS. 1 and 2). Samples can be stored as the single dephosphorylated nucleotides for up to 35 days. The method has been applied in vitro to untreated (FIG. 4) and DAC treated cells (FIG. 5).

[2] = due to deamination to 5-aza-2′-deoxyuridine; cited from earlier work
[3] = system: DU145 human prostate cancer cells; assay: DAC incorporation into genomic DNA of DU145 cells (LC-MS/MS); type: cell-based
Method: (§2) Genomic DNA was suspended in 50 μL of HPLC grade water, and digested with 4 Units of Nuclease P1 (Sigma Aldrich) at 65° C. for 10 minutes in a digestion buffer containing 0.04 mM DFAM, 3.25 mM ammonium acetate pH 5.0, 0.5 mM zinc chloride in a final volume of 100 μL. 20 μL of 100 mM Trizma base, pH 8.5 was added and this reaction was treated with 4 Units of Alkaline Phosphatase at 37° C. for 1 hour. Following incubation, 20 μL of 300 mM ammonium acetate, pH 5.0 and 6 μL of 0.25 mM DFAM/50 mM ethylenediaminetetraacetic acid was added to stop digestion.
as §1
DU145 prostate cancer cells were cultured in RPMI-1640, supplemented with 5% fetal bovine serum (Invitrogen). DAC was dissolved in DMSO and added to the culture at varying concentrations. The same volume of DMSO was added as a control. Cells were allowed to grow for 48 hr. An independent experiment was performed in three replicates. Following cell harvest, genomic DNA isolation, digestion to single dephosphorylated nucleotides according to our described protocols, DAC and 2dC content were determined using our LC-MS/MS analytical approach.

[4] = system: colon tissue; assay: DAC and 5mC content in genomic DNA of colon cells from mice treated with DAC; type: in vivo; conditions: DAC 1, 2 or 5 mg/kg intraperitoneal, 10 doses (FIG. 7)
Method: as §2
(§3) Standards and quality control (QCs) samples were prepared by adding known concentrations of analytes into blank digest matrix (all solvents used during the DNA digest except for the enzymes). All digested DNA samples, standards and QCs were prepared for analysis by adding 20 μL internal standard (5AC-^15N4, 2dC-^13C^15N2 and 5mC-d3 in water) to 100 μL of sample and vortex-mix briefly. The internal standard in the range of 5 μL, 10 μL, or 15 μL to 20 μL, 25 μL, 30 μL, or 35 μL could be added to a sample. […] All analytes were quantified using quadratic regression with 1/x^2 weighing. […]
(§4) DAC (1, 2 or 5 mg/kg) (Sigma-Aldrich) or vehicle was administered via daily intraperitoneal injection. […] DAC, 2dC, and 5mC were measured using our LC-MS/MS analytical approach.

[5] = system: whole bone marrow cells; assay: DAC and 5mC content in genomic DNA of bone marrow cells from mice treated with DAC; type: in vivo; conditions: DAC 1, 2 or 5 mg/kg intraperitoneal, 10 doses (FIG. 7)
Method: as §2, §3, §4

[6] = DU145 cells treated with 500 nM DAC (FIG. 5)

Reinjection Stability (5 Days) (5° C.) (%) ([1]; High QC)	Digest Buffers Stability (−70° C.) (35 Days) (%) ([1]; High QC)	Reinjection Stability (5 Days) (5° C.) (%) ([1]; Low QC)	Digest Buffers Stability (−70° C.) (35 Days) (%) ([1]; Low QC)	Stock Stability (27 Days) (%) [1] [%]	SMILES	plasma half-life [2] [min]	concentration of 2dC in digested genomic DNA [3, 6] [ng/mL]	concentration of 5mC in digested genomic DNA [3, 6] [ng/mL]	concentration of DAC in digested genomic DNA [3, 6] [ng/mL]	amount of DAC per thousand 2dC versus initial treatment dose ([3]; increasing doses of DAC, 48 hours, three replicates (FIG. 6))	5mC content (per thousand 2dC) relative to DAC incorporation [4]	DAC incorporation into genomic DNA (DAC per thousand 2dC) [4]	DAC incorporation into genomic DNA (DAC per thousand 2dC) [5]
106.0	99	108.0	107.2	98.7	Nc1ccn([C@H]2C[C@H](O)[C@@H](CO)O2)c(=O)n1 [2dC, 2′-deoxycytidine]	–	–	–	–	–	–	–	–
92.5	103.2	88.6	101.8	94.8	Nc1ncn([C@H]2C[C@H](O)[C@@H](CO)O2)c(=O)n1 [DAC, 5-aza-2′-deoxycytidine]	15 to 25	1250	27.4	2.8	strong linear correlation	inversely correlated with DAC incorporation	dose responsive increase in incorporation	dose responsive increase in incorporation
